# Target: T1, Recombinant human cathepsin A (Homo sapiens, UniProt P10619)
# T1 construct: Recombinant human cathepsin A (residues 29-480, with a C-terminal 10-His tag); 10-His (C); purchased R&D Systems 1049-SE
# T1 sequence (P10619 29-312 limits assumed): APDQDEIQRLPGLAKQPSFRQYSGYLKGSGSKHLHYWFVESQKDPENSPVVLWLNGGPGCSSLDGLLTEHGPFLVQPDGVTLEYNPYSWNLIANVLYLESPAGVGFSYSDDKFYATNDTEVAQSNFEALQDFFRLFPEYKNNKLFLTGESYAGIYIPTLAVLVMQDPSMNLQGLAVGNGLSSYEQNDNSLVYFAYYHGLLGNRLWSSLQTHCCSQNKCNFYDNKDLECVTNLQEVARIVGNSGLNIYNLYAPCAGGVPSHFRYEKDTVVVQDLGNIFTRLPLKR
# T1 sequence (P10619 327-480 limits assumed): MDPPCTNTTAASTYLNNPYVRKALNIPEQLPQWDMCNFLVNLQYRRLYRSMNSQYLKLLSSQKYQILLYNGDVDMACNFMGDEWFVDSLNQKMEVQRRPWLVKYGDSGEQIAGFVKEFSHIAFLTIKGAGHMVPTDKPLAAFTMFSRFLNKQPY
# Assay: Cathepsin A inhibitory activity
# Format: biochemical
# Details: recombinant human cathepsin A; read-out: Activity (2): Cathepsin A inhibitory activity, IC50 class
# Procedure, shortened: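 Read-out was microfluidic separation of cleaved vs. uncleaved Bodipy FL-bradykinin (2 μM), giving turnover, % inhibition and IC50. Compound and 833 ng/ml enzyme met for 15 min RT in pH 5.5 MES/DTT before substrate (15 min RT). The 29-480 His-tagged human enzyme was first activated by cathepsin L, then E-64 (10 μM).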
row,SMILES,IC50 [nM]
1,"CCC(COC)NC(=O)C[C@H](NC(=O)c1cc(OC)n(-c2ccccc2F)n1)c1ccccc1C (stereo partly drawn) [Example 921, 1-(2-Fluoro-phenyl)-5-methoxy-1H-pyrazole-3-carboxylic acid [(S)-2-(1-methoxymethyl-propylcarbamoyl)-1-o-tolyl-ethyl]-amide]",1000 to 30000
2,"COc1cc(C(=O)N[C@@H](CC(=O)NC(C)(C)C)c2ccccc2C)nn1-c1ccccc1F [Example 922, 1-(2-Fluoro-phenyl)-5-methoxy-1H-pyrazole-3-carboxylic acid ((S)-2-tert-butylcarbamoyl-1-o-tolyl-ethyl)-amide]",1000 to 30000
3,"COc1cc(C(=O)N[C@@H](CC(=O)Nc2cc(C)[nH]n2)c2ccccc2C)nn1-c1ccccc1F [Example 923, 1-(2-Fluoro-phenyl)-5-methoxy-1H-pyrazole-3-carboxylic acid [(S)-2-(5-methyl-1H-pyrazol-3-ylcarbamoyl)-1-o-tolyl-ethyl]-amide]",1000 to 30000
4,"COc1cc(C(=O)N[C@@H](CC(=O)NCC(C)(C)C)c2ccccc2C)nn1-c1ccccc1F [Example 924, 1-(2-Fluoro-phenyl)-5-methoxy-1H-pyrazole-3-carboxylic acid [(S)-2-(2,2-dimethyl-propylcarbamoyl)-1-o-tolyl-ethyl]-amide]",< 100
5,"COc1cc(C(=O)N[C@@H](CC(=O)NCC(C)(C)CO)c2ccccc2C)nn1-c1ccccc1F [Example 925, 1-(2-Fluoro-phenyl)-5-methoxy-1H-pyrazole-3-carboxylic acid [(S)-2-(3-hydroxy-2,2-dimethyl-propylcarbamoyl)-1-o-tolyl-ethyl]-amide]",1000 to 30000
6,"COc1cc(C(=O)N[C@@H](CC(=O)NCC#N)c2ccccc2C)nn1-c1ccccc1F [Example 926, 1-(2-Fluoro-phenyl)-5-methoxy-1H-pyrazole-3-carboxylic acid [(S)-2-(cyanomethyl-carbamoyl)-1-o-tolyl-ethyl]-amide]",1000 to 30000
7,"COc1cc(C(=O)N[C@@H](CC(=O)N[C@@H](CO)C(C)C)c2ccccc2C)nn1-c1ccccc1F [Example 927, 1-(2-Fluoro-phenyl)-5-methoxy-1H-pyrazole-3-carboxylic acid [(S)-2-((R)-1-hydroxymethyl-2-methyl-propylcarbamoyl)-1-o-tolyl-ethyl]-amide]",100 to 1000
8,COc1cc(C(=O)N[C@@H](CC(=O)NCc2nnn[nH]2)c2ccccc2C)nn1-c1ccccc1F [Example 928],100 to 1000
9,COc1cc(C(=O)N[C@@H](CC(=O)NC(C)C)c2ccccc2C)nn1-c1ccccc1F [Example 929],100 to 1000

# Now from value to molecule:
row,IC50 [nM],SMILES
1,100 to 1000,"COc1cc(C(=O)N[C@@H](CC(=O)Nc2ccn(C)n2)c2ccccc2C)nn1-c1ccccc1F [Example 930, 1-(2-Fluoro-phenyl)-5-methoxy-1H-pyrazole-3-carboxylic acid [(S)-2-(1-methyl-1H-pyrazol-3-ylcarbamoyl)-1-o-tolyl-ethyl]-amide]"
2,1000 to 30000,"COc1cc(C(=O)N[C@@H](CC(=O)NC2CCNC2=O)c2ccccc2C)nn1-c1ccccc1F (stereo partly drawn) [Example 931, 1-(2-Fluoro-phenyl)-5-methoxy-1H-pyrazole-3-carboxylic acid [(S)-2-(2-oxo-pyrrolidin-3-ylcarbamoyl)-1-o-tolyl-ethyl]-amide]"
3,100 to 1000,"COc1cc(C(=O)N[C@@H](CC(=O)Nc2cc(C)on2)c2ccccc2C)nn1-c1ccccc1F [Example 932, 1-(2-Fluoro-phenyl)-5-methoxy-1H-pyrazole-3-carboxylic acid [(S)-2-(5-methyl-isoxazol-3-ylcarbamoyl)-1-o-tolyl-ethyl]-amide]"
4,< 100,"COc1cc(C(=O)N[C@@H](CC(=O)NC2CC2)c2ccccc2C)nn1-c1ccccc1F [Example 933, 1-(2-Fluoro-phenyl)-5-methoxy-1H-pyrazole-3-carboxylic acid ((S)-2-cyclopropylcarbamoyl-1-o-tolyl-ethyl)-amide]"
5,< 100,"COc1cc(C(=O)N[C@@H](CC(=O)NCc2ccno2)c2ccccc2C)nn1-c1ccccc1F [Example 934, 1-(2-Fluoro-phenyl)-5-methoxy-1H-pyrazole-3-carboxylic acid {(S)-2-[(isoxazol-5-ylmethyl)-carbamoyl]-1-o-tolyl-ethyl}-amide]"
6,< 100,"COCCNC(=O)C[C@H](NC(=O)c1cc(OC)n(-c2ccccc2F)n1)c1ccccc1C [Example 935, 1-(2-Fluoro-phenyl)-5-methoxy-1H-pyrazole-3-carboxylic acid [(S)-2-(2-methoxy-ethylcarbamoyl)-1-o-tolyl-ethyl]-amide]"
7,< 100,"COc1cc(C(=O)N[C@@H](CC(=O)N[C@H](CO)C(C)C)c2ccccc2C)nn1-c1ccccc1F [Example 936, 1-(2-Fluoro-phenyl)-5-methoxy-1H-pyrazole-3-carboxylic acid [(S)-2-((S)-1-hydroxymethyl-2-methyl-propylcarbamoyl)-1-o-tolyl-ethyl]-amide]"
8,< 100,"COC[C@H](C)NC(=O)C[C@H](NC(=O)c1cc(OC)n(-c2ccccc2F)n1)c1ccccc1C [Example 937, 1-(2-Fluoro-phenyl)-5-methoxy-1H-pyrazole-3-carboxylic acid [(S)-2-((S)-2-methoxy-1-methyl-ethylcarbamoyl)-1-o-tolyl-ethyl]-amide]"
9,< 100,"COc1cc(C(=O)N[C@@H](CC(=O)NC[C@@H]2CCCO2)c2ccccc2C)nn1-c1ccccc1F [Example 938, 1-(2-Fluoro-phenyl)-5-methoxy-1H-pyrazole-3-carboxylic acid ((S)-2-{[(S)-1-(tetrahydro-furan-2-yl)methyl]-carbamoyl}-1-o-tolyl-ethyl)-amide]"
10,< 100,"COc1cc(C(=O)N[C@@H](CC(=O)N[C@H](C)C(C)C)c2ccccc2C)nn1-c1ccccc1F [Example 939, 1-(2-Fluoro-phenyl)-5-methoxy-1H-pyrazole-3-carboxylic acid [(S)-2-((R)-1,2-dimethyl-propylcarbamoyl)-1-o-tolyl-ethyl]-amide]"
